Data on 41 molecules can be found in patent US10280149B2, “Therapeutic compounds and uses thereof” (GENENTECH, INC., priority 2015, dated 2019).

The target in this assay is Full length KDM2B (Homo sapiens (Human), UniProt Q8NHM5). The assay is described as follows: KDM2B TR-FRET assay for determining inhibitor IC50. Type of assay: biochemical. As to conditions: TR-FRET (HTRF), biotin-H3K36me2 peptide substrate, 2-OG 0.3 μM or 6 μM. From the text: KDM2B TR-FRET Assay for Determining Inhibitor IC50
Full length KDM2B, sequence (Q8NHM5 whole entry): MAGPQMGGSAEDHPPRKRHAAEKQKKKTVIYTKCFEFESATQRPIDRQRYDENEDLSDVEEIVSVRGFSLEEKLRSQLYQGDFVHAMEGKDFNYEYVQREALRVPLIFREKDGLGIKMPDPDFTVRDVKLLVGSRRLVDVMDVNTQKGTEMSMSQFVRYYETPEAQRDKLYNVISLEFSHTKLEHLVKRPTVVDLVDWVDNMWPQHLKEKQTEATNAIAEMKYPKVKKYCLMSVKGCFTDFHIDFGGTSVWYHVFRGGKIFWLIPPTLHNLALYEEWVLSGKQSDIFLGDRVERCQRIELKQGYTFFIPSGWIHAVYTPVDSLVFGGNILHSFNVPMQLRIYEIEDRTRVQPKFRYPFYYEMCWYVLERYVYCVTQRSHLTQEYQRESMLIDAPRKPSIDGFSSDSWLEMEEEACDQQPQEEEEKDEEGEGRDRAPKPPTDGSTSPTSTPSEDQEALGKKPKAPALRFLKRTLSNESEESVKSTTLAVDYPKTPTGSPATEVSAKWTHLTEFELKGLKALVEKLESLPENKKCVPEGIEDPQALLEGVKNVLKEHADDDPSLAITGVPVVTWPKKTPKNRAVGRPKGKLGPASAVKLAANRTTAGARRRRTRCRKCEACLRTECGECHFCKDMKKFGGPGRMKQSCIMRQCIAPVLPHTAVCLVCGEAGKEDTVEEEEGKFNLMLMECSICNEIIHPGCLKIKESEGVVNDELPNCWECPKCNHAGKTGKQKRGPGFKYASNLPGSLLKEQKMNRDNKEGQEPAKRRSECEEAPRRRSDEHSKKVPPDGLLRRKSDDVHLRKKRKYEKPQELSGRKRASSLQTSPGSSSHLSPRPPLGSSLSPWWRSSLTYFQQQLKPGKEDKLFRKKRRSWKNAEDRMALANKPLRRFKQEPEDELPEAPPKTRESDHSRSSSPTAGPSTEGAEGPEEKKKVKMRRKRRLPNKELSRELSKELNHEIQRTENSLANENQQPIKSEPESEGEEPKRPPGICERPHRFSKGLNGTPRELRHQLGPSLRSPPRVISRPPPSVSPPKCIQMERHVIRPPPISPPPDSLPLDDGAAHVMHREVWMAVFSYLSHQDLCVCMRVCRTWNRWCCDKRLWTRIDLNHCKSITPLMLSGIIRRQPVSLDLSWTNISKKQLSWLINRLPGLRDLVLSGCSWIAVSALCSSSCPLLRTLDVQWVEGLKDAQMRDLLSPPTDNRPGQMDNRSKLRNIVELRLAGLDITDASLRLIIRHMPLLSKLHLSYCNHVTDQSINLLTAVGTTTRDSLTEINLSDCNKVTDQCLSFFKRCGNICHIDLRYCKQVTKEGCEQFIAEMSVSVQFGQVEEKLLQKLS
The KDM2B TR-FRET Assay described above represents an additional embodiment of the invention.
For orientation: In TR-FRET formats the signal depends on donor and acceptor labels being close together.
What is called IC50 is the concentration that inhibits the measured activity by half. High values mean a need for much substance, low ones inhibition by little substance. Molecule `CC(=O)NCc1cc(C(=O)C2CCCN(CC3CC3)C2)cc2ccccc12` (centres unmarked) [Example 39, N-[[3-[1-(cyclopropylmethyl)piperidine-3-carbonyl]-1-naphthyl]methyl]acetamide] had a half-maximal inhibitory concentration (IC50) of 460 nM. Turning to `CS(=O)(=O)c1ccc2cc(C(=O)C3CCCN(C4CCC4)C3)ccc2c1` (centres unmarked) [Example 170, (1-cyclobutylpiperidin-3-yl)(6-(methylsulfonyl)naphthalen-2-yl)methanone], the IC50 is 42.6 nM.

Molecule `Cc1cccc2ccc(C(=O)C3CCCN(CC4CC4)C3)cc12` (centres unmarked) [Example 59, [1-(cyclopropylmethyl)-3-piperidyl]-(8-methyl-2-naphthyl)methanone] showed a concentration for half-maximal inhibition (IC50) of 169 nM. Take `COc1ccc2cc(C(=O)[C@]3(O)CCCN(CC4CC4)C3)ccc2c1` (stereo in doubt) [Example 158b, (1-(cyclopropylmethyl)-3-hydroxypiperidin-3-yl)(6-methoxynaphthalen-2-yl)methanone]: the IC50 amounted to 11500 nM. `CCCN1CCCC(C(=O)c2ccc(C(F)(F)F)cc2)C1` (centres unmarked) [Example 100, (1-propyl-3-piperidyl)-[4-(trifluoromethyl)phenyl]methanone] returned a half-maximal inhibitory concentration (IC50) of 1200 nM. The molecule `CS(=O)(=O)c1ccc2cc(C(=O)C3CCCN(CC4CC4)C3)ccc2c1` (centres unmarked) [Example 169, (1-(cyclopropylmethyl)piperidin-3-yl)(6-(methylsulfonyl)naphthalen-2-yl)methanone] displayed an IC50 of 112 nM. For `O=C(c1ccc2c(O)cccc2c1)C1CCCN(CC2CC2)C1` (centres unmarked) [Example 150, (1-(cyclopropylmethyl)piperidin-3-yl)(5-hydroxynaphthalen-2-yl)methanone], the 50% inhibitory concentration (IC50) came to 133 nM.

Consider `COc1ccc2cc(C(=O)C3CCCN(CC4CCC4)C3)ccc2c1` (centres unmarked) [Example 69, [1-(cyclobutylmethyl)-3-piperidyl]-(6-methoxy-2-naphthyl)methanone], for which the IC50 stood at 150 nM. `COc1ccc2cc(C(=O)C3CCCN(C4CCC4)C3)ccc2c1CC#N` (centres unmarked) [Example 55, 2-[6-(1-cyclobutylpiperidine-3-carbonyl)-2-methoxy-1-naphthyl]acetonitrile] gave a half-maximal inhibitory concentration (IC50) of 13.2 nM. In the case of `O=C(Nc1ccc2cc(C(=O)C3CCCN(CC4CC4)C3)ccc2c1)C1CC1` (centres unmarked) [Example 175], the IC50 came to 355 nM. With `CCC[C@H]1CCN(C2CCC2)C[C@@H]1C(=O)c1ccc2c(CC#N)c(OC)ccc2c1` (stereo in doubt) [Example 184d, 2-(6-(1-cyclobutyl-4-propylpiperidine-3-carbonyl)-2-methoxynaphthalen-1-yl)acetonitrile], the half-inhibitory concentration (IC50) was found to be 263 nM. In turn, `CCCN1CCCC(C(=O)c2ccc3c(C)c(C#N)ccc3c2)C1` (centres unmarked) [Example 70, 1-methyl-6-(1-propylpiperidine-3-carbonyl)-2-naphthonitrile] returned an IC50 of 91.8 nM. Turning to `COc1ccc2cc(C(=O)C3CCCN(C4CC(F)(F)C4)C3)ccc2c1` (centres unmarked) [Example 66, [1-(3,3-difluorocyclobutyl)-3-piperidyl]-(6-methoxy-2-naphthyl)methanone], the midpoint of inhibition, the IC50, lay at 67.5 nM. In the case of `O=C(c1cccc(Oc2ccc(F)cc2)c1)C1CCCN(CC2CC2)C1` (centres unmarked) [Example 27, [1-(cyclopropylmethyl)-3-piperidyl]-[3-(4-fluorophenoxy)phenyl]methanone], the IC50 is 221 nM. Regarding `O=C(c1ccc(Cl)cc1)[C@@H]1CCCN(CC2CC2)C1` (stereo in doubt) [Example 116a, (4-chlorophenyl)(1-(cyclopropylmethyl)piperidin-3-yl)methanone], the IC50 is 5800 nM.

Molecule `COc1ccc2cc(C(=O)[C@H]3CN(CC4CC4)CC[C@@H]3C)ccc2c1` (single isomer, unassigned) [Example 137d, (1-(cyclopropylmethyl)-4-methylpiperidin-3-yl)(6-methoxynaphthalen-2-yl)methanone] displayed a half-inhibitory concentration (IC50) of 3300 nM. In the case of `COc1ccc2cc(C(=O)C3CN(C4CCC4)CCN3Cc3ccccc3C#N)ccc2c1` (centres unmarked) [Example 195, 2-[[4-cyclobutyl-2-(6-methoxynaphthalene-2-carbonyl)piperazin-1-yl]methyl]benzonitrile], the IC50 was 176 nM. As for `COc1ccc(C(=O)[C@@H]2CCCN(C3CCC3)C2)c(OC)c1` [Example 12, [(3R)-1-cyclobutyl-3-piperidyl]-(2,4-dimethoxyphenyl)methanone], the figure is 9000 nM; as for `CCCN1CCCC(C(=O)c2ccc(OC(F)(F)F)cc2)C1` (centres unmarked) [Example 103, (1-propyl-3-piperidyl)-[4-(trifluoromethoxy)phenyl]methanone], 2000 nM; as for `NCc1cc(C(=O)C2CCCN(CC3CC3)C2)cc2ccccc12` (centres unmarked) [Example 37, [4-(aminomethyl)-2-naphthyl]-[1-(cyclopropylmethyl)-3-piperidyl]methanone], 620 nM. `O=C(c1cc(F)c2ccccc2c1)C1CCCN(CC2CC2)C1` (centres unmarked) [Example 26, [1-(cyclopropylmethyl)-3-piperidyl]-(4-fluoro-2-naphthyl)methanone]: the half-inhibitory concentration (IC50) worked out at 551 nM. In turn, `CCC[C@@H]1CCN(C2CCC2)C[C@H]1C(=O)c1ccc2c(CC#N)c(OC)ccc2c1` (stereo in doubt) [Example 184c, 2-(6-(1-cyclobutyl-4-propylpiperidine-3-carbonyl)-2-methoxynaphthalen-1-yl)acetonitrile] had a half-maximal inhibitory concentration (IC50) of 3.13 nM. Under `O=C(c1cc(CO)c2ccccc2c1)C1CCCN(CC2CC2)C1` (centres unmarked) [Example 35, [1-(cyclopropylmethyl)-3-piperidyl]-[4-(hydroxymethyl)-2-naphthyl]methanone] stands 169 nM; under `CC[C@@H]1CCN(C2CCC2)C[C@H]1C(=O)c1ccc2c(CC#N)c(OC)ccc2c1` (stereo in doubt) [Example 183a, 2-(6-(1-cyclobutyl-4-ethylpiperidine-3-carbonyl)-2-methoxynaphthalen-1-yl)acetonitrile], 55.2 nM; under `COc1ccc2cc(C(=O)C3CCCN(C4CCOCC4)C3)ccc2c1` (centres unmarked) [Example 6, (6-methoxy-2-naphthyl)-(1-tetrahydropyran-4-yl-3-piperidyl)methanone], 2600 nM. For `COc1ccc(C(=O)[C@@H]2CCCN(CC3CC3)C2)cc1` (stereo in doubt) [Example 110b, (1-(cyclopropylmethyl)piperidin-3-yl)(4-methoxyphenyl)methanone], the IC50 is 5300 nM. For the molecule `COc1ccc2cc(C(=O)C3CN(C4CCC4)CCC3c3ccccc3)ccc2c1` (single isomer, unassigned) [Example 141b, (1-cyclobutyl-4-phenylpiperidin-3-yl)(6-methoxynaphthalen-2-yl)methanone], the midpoint of inhibition, the IC50, lay at 98.7 nM. `CCC1CCN(C2CCC2)CC1C(=O)c1ccc2cc(OC)ccc2c1` (single isomer, unassigned) [Example 142d, (1-cyclobutyl-4-ethylpiperidin-3-yl)(6-methoxynaphthalen-2-yl)methanone] displayed a concentration for half-maximal inhibition (IC50) of 6.56 nM.

`COc1ccc2cc(C(=O)[C@H]3CN(C4CCC4)CC[C@H]3C(C)C)ccc2c1` (single isomer, unassigned) [Example 143b, (1-cyclobutyl-4-isopropylpiperidin-3-yl)(6-methoxynaphthalen-2-yl)methanone] returned a concentration for half-maximal inhibition (IC50) of 15.9 nM.

Consider `O=C(c1ccc(-c2ccccc2)cc1)[C@@H]1CCCN(CC2CC2)C1` [Example 32, [(3R)-1-(cyclopropylmethyl)-3-piperidyl]-(4-phenylphenyl)methanone], for which half-maximal inhibition (IC50) was put at 4100 nM.

Turning to `O=C(c1ccc(Cl)cc1)[C@H]1CCCN(CC2CC2)C1` (stereo in doubt) [Example 116b, (4-chlorophenyl)(1-(cyclopropylmethyl)piperidin-3-yl)methanone], inhibition was half-maximal at 1400 nM (IC50). In the case of `CCC1CCN(C2CCC2)CC1C(=O)c1ccc2cc(OC)ccc2c1` (single isomer, unassigned) [Example 142b, (1-cyclobutyl-4-ethylpiperidin-3-yl)(6-methoxynaphthalen-2-yl)methanone], the IC50 amounted to 349 nM. Under `COc1ccc2cc(C(=O)C3CN(CC4CC4)CCC3C(F)(F)F)ccc2c1` (single isomer, unassigned) [Example 138a, (1-(cyclopropylmethyl)-4-(trifluoromethyl)piperidin-3-yl)(6-methoxynaphthalen-2-yl)methanone] stands 137 nM.

Molecule `Cc1ccc(-c2ccc(C(=O)C3CCCN(CC4CC4)C3)cc2)cc1` (centres unmarked) [Example 34, [1-(cyclopropylmethyl)-3-piperidyl]-[4-(p-tolyl)phenyl]methanone] returned an IC50 of 402 nM.

In the case of `COc1ccc2cc(C(=O)[C@H]3CCCN(C4CCCC4)C3)ccc2c1` [Example 10, [(3S)-1-cyclopentyl-3-piperidyl]-(6-methoxy-2-naphthyl)methanone], the IC50 turned out to be 56.6 nM. On to `COc1ccc2cc(C(=O)[C@@]3(O)CCCN(CC4CC4)C3)ccc2c1` (stereo in doubt) [Example 158a, (1-(cyclopropylmethyl)-3-hydroxypiperidin-3-yl)(6-methoxynaphthalen-2-yl)methanone], for which the IC50 was 1900 nM. With `CC1CCN(CC2CC2)CC1C(=O)c1ccc2c(O)cccc2c1` (single isomer, unassigned) [Example 151a, (1-(cyclopropylmethyl)-4-methylpiperidin-3-yl)(5-hydroxynaphthalen-2-yl)methanone], 315 nM corresponded to half-maximal inhibition (IC50). Molecule `COc1ccc2cc(C(=O)C3CN(CC4CC4)CCC3c3ccccc3)ccc2c1` (centres unmarked) [Example 145, (1-(cyclopropylmethyl)-4-phenylpiperidin-3-yl)(6-methoxynaphthalen-2-yl)methanone] came in with an IC50 of 312 nM.

As for `COc1ccc(C(=O)[C@H]2CCCN(C3CCC3)C2)c(OC)c1` [Example 11, [(3S)-1-cyclobutyl-3-piperidyl]-(2,4-dimethoxyphenyl)methanone], the IC50 turned out to be 153 nM. On to `COc1ccc2cc(C(=O)C3CCCN(CCF)C3)ccc2c1` (centres unmarked) [Example 79, [1-(2-fluoroethyl)-3-piperidyl]-(6-methoxy-2-naphthyl)methanone], for which the concentration for half-maximal inhibition (IC50) was 1800 nM.

For the molecule `COc1ccc2cc(C(=O)[C@@H]3CCCN(C4CCC4)C3)ccc2c1CC#N` (stereo in doubt) [Example 179b, 2-(6-(1-cyclobutylpiperidine-3-carbonyl)-2-methoxynaphthalen-1-yl)acetonitrile], inhibition was half-maximal at 361 nM (IC50).
